Entries after “also recorded” stand apart in the source; their conditions may differ.
Columns and labels:
[1] = bovine
in vitro = details: bovine, serum
mushroom tyrosinase = format: biochemical; details: for oxidation rate (Rmax) by tyrosinase: pH 7.4

O=C(NCCc1ccc(O)cc1)Oc1ccc(N(CCCl)CCCl)cc1 [1.1.1]
% decomposition over time, 1 hr [1]: 7% | % decomposition over time, 2 hrs [1]: 44% | % decomposition over time, 3 hrs [1]: 61% | % decomposition over time, 4 hrs [1]: 74% | % decomposition over time, 6 hrs [1]: 100% | half-life (in vitro): ~2.5 h

COc1cccc2c1C(=O)c1c(O)c3c(c(O)c1C2=O)C[C@@](O)(C(C)=O)C[C@@H]3OC1CC(NC(=O)NCCc2ccc(O)cc2)C(O)C(C)O1 (stereo partly drawn) [1.1.5]
% decomposition over time, 1 hr [1]: 0% | % decomposition over time, 2 hrs [1]: 0% | % decomposition over time, 3 hrs [1]: 0% | % decomposition over time, 4 hrs [1]: 0% | % decomposition over time, 6 hrs [1]: 0% | % decomposition over time, 12 hrs [1]: 0% | % decomposition over time, 24 hrs [1]: 0% | % decomposition over time, 48 hrs [1]: 0% | quality as tyrosinase substrate / oxidation rate in words (mushroom tyrosinase): poor substrate

COC(=O)[C@H](Cc1ccc(O)cc1)NC(=S)Oc1ccc(N(CCCl)CCCl)cc1 [2.2.1]
% decomposition over time, 1 hr [1]: 52% | % decomposition over time, 2 hrs [1]: 92% | % decomposition over time, 3 hrs [1]: 100% | half-life (in vitro): ~1.5 h

O=C(NCCc1ccc(O)cc1)Oc1ccc(N(CCCl)CCCl)cc1 [prodrug 9, {2′-(4″-Hydroxyphenyl)ethyl} carbamic acid p-(bis-2-chloroethylamino)phenyl ster]
quality as tyrosinase substrate / oxidation rate in words (mushroom tyrosinase): good substrates

O=C(NCCc1ccc(O)c(O)c1)Oc1ccc(N(CCCl)CCCl)cc1 [prodrug 10, {2′-(3″,4″-Dihydroxyphenyl)-ethyl} carbamic acid p-(bis-2-chloroethylamino) phenyl ester]
quality as tyrosinase substrate / oxidation rate in words (mushroom tyrosinase): good substrates

COC(=O)[C@@H](Cc1ccc(O)c(O)c1)NC(=O)Oc1ccc(N(CCCl)CCCl)cc1 [prodrug 16, (R)-[1′-Amino-2′-(3,4′-hydroxyphenyl)ethanonic acid methyl ester]-carbamic acid p-(bis-2-chloroethylamino) phenyl ester]
oxidation by tyrosinase within incubation period (mushroom tyrosinase): not oxidized by tryorinase; also recorded: not oxidised by tyrosinase

O=C(NCCc1ccc(O)cc1)Oc1ccc(N(CCCl)CCCl)cc1 [prodrug 21, {2′-(4″-Hydroxyphenyl)ethylamine) carbamic acid p-(bis-2-chloroethylamino) phenyl ester]
oxidation rate (Rmax) by tyrosinase (mushroom tyrosinase): 7.5 nmol/min

O=C(NCCSc1ccc(O)cc1)Oc1ccc(N(CCCl)CCCl)cc1 [prodrug 22]
oxidation rate (Rmax) by tyrosinase (mushroom tyrosinase): 7.5 nmol/min
